We go through nine compounds from ChEMBL document CHEMBL5729588, “Spiro-oxazolones” (2023).

The structures appear in SMILES notation.

Vasopressin V1a receptor, sequence (P37288 whole entry): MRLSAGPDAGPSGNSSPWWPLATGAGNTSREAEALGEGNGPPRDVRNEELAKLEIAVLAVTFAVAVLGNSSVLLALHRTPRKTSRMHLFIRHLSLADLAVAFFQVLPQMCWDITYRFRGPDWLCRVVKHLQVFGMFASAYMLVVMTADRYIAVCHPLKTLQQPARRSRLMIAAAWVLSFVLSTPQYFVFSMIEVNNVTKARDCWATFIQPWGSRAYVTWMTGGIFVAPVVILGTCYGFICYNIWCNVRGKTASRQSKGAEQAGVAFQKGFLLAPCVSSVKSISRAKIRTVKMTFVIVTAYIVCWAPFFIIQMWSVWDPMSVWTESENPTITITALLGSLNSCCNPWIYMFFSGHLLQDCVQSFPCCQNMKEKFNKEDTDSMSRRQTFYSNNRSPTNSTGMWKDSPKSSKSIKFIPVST

The assay has as its target Vasopressin V1a receptor (Homo sapiens, UniProt P37288). Nature of the assay: Pharmacological Assay: The human V1a receptor was cloned by RT-PCR from total human liver RNA. The coding sequence was subcloned in an expression vector after sequencing to confirm the identity of the amplified sequence. […] Cell membranes were prepared from HEK293 cells transiently transfected with the expression vector and grown in 20 liter fermenters with the following protocol. 50 g of cells are re-suspended in 30 ml freshly prepared ice cold Lysis buffer ([…] HEPES. 1 mM EDTA, 10 mM MgCl adjusted to pH=7.4+complete cocktail of protease inhibitor (Roche Diagnostics)). Homogenized with Polytron for 1 min and sonicated on ice for 2×2 minutes at 80% intensity (Vibracell sonicator). The preparation is centrifuged 20 min at 500 g at 4° C., the pellet is discarded and the supernatant centrifuged 1 hour at 43'000 g at 4° C. (19'000 rpm). The pellet is re-suspended in 12.5 ml Lysis buffer+12.5 ml Sucrose 20% and homogenized using a Polytron for 1-2 min. The protein concentration is determined by the Bradford method and aliquots are stored at −80° C. until use. For binding studies 60 mg Yttrium silicate SPA beads (Amersham) are mixed with an aliquot of membrane in binding buffer (50 mM Tris, 120 mM NaCl, 5 mM KCl, 2 mM CaCl, 10 mM MgCl) for 15 minutes with mixing. 50 μl of bead/membrane mixture is then added to each well of a 96 well plate, followed by […] of 4 nM 3H-Vasopressin (American Radiolabeled Chemicals). For total binding measurement 100 μl of binding buffer are added to the respective wells, for non-specific binding 100 μl of 8.4 mM cold vasopressin and for compound testing 100 μl of a serial dilution of each compound in 2% DMSO. The plate is incubated 1 h at room temperature, centrifuged 1 min at 1000 g and counted on a Packard Top-Count. Non-specific binding counts are subtracted from each well and data is normalized to the maximum specific binding set at 100%. To calculate an IC 50 the curve is fitted using a non-linear regression model (XLfit) and the K, is calculated using the Cheng-Prussoff equation.
With `O=C1N=C(N2CCC3(CC2)OCc2ccccc23)OC12CCc1ccccc1C2` (centres undefined), the Ki was 1 nM.
In the case of `Cc1cc2c(cn1)COC21CCN(C2=NC(=O)C3(Cc4ccccc4C3)O2)CC1`, the Ki was 10 nM.
In the case of `O=C1N=C(N2CCC3(CC2)OCc2ccccc23)OC12CCCc1ccccc12` (centres undefined), the Ki is 50.1 nM.
With `O=C1N=C(N2CCC3(CC2)OCc2ccccc23)OC12Cc1ccc(Cl)cc1C2` (centres undefined) the figure was 1 nM; with `Cc1cc2c(cn1)C1(CCN(C3=NC(=O)C4(Cc5ccccc5C4)O3)CC1)OC2=O`, 15.8 nM; with `O=C1OC2(CCN(C3=NC(=O)C4(Cc5ccccc5C4)O3)CC2)c2cc(O)ccc21`, 0.794 nM.
With `Cc1cc2c(cn1)C1(CCN(C3=NC(=O)C4(Cc5ccccc5C4)O3)CC1)OC2`, the Ki was 3.16 nM.
With `Cc1cc2c(cn1)C(=O)OC21CCN(C2=NC(=O)C3(Cc4ccccc4C3)O2)CC1` the figure was 12.6 nM; with `O=C1OC2(CCN(C3=NC(=O)C4(Cc5ccccc5C4)O3)CC2)c2ccccc21`, 1 nM.

By Ki is commonly meant a dissociation constant, usually derived from enzyme kinetics or from competition with a known ligand.
